Laboratory results taken from patent publication US5591891A, “N-[Mercaptoacyl (amino acid or peptide ) ] compounds and S-lipophiIic aliphatic carbonyl derivatives thereof as antihypertensives” (Institut National de la Sante et de la Recherche Medicale …, priority 1994, dated 1997).

Experiments:
[1] = target: neutral endopeptidase (NEP) (Homo sapiens, UniProt P08473); assay: Enzymatic inhibition of neutral endopeptidase, [3H]D-Ala2-Leu-enkephalin as substrate; type: biochemical
Experimental: The enzymatic inhibitory properties of compounds according to the present invention are measured using [^3 H]D-Ala^2 -Leu-enkephalin as a substrate for neutral endopeptidase as described previously by Llorens et al., Biochem. Biophys.

[2] = target: peptidyldipeptidase A (ACE) (Homo sapiens, UniProt P12821); assay: Enzymatic inhibition of peptidyldipeptidase A, Z-Phe-His-Leu as substrate; type: biochemical
peptidyldipeptidase A (ACE), sequence (P12821 30-1306, species assumed): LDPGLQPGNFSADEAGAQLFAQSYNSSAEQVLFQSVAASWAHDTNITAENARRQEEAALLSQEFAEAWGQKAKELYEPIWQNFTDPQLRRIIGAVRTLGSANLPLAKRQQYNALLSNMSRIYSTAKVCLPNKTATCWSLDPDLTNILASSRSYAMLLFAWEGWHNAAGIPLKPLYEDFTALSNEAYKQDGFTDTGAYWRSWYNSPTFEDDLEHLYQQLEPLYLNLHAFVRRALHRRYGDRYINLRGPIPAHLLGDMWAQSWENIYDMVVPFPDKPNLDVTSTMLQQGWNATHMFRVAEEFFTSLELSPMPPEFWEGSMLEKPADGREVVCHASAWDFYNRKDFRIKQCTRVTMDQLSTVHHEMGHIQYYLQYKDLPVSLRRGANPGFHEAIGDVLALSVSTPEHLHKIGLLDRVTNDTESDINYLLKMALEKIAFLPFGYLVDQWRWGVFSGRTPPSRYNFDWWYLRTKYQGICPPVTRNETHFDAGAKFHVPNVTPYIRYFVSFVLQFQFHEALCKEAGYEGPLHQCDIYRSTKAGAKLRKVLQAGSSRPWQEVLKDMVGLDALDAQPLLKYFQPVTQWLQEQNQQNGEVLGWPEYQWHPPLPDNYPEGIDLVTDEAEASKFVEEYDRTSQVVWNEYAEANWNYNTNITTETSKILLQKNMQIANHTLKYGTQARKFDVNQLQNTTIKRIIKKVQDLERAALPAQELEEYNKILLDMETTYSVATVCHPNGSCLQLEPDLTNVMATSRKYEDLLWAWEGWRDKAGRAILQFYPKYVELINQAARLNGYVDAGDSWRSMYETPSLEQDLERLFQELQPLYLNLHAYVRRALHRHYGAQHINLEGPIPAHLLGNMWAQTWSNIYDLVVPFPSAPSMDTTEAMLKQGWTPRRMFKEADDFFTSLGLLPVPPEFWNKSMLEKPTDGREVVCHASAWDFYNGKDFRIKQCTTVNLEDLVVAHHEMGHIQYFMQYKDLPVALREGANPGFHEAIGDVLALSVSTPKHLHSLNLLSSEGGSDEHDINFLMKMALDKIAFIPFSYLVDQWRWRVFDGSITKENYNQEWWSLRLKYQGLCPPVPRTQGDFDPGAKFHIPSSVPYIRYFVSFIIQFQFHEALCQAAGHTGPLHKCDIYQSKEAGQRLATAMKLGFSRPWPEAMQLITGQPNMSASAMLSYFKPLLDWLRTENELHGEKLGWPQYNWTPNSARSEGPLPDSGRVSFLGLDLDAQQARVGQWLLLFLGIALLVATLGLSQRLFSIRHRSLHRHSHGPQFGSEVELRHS

neutral endopeptidase (NEP), sequence (P08473 whole entry, species assumed): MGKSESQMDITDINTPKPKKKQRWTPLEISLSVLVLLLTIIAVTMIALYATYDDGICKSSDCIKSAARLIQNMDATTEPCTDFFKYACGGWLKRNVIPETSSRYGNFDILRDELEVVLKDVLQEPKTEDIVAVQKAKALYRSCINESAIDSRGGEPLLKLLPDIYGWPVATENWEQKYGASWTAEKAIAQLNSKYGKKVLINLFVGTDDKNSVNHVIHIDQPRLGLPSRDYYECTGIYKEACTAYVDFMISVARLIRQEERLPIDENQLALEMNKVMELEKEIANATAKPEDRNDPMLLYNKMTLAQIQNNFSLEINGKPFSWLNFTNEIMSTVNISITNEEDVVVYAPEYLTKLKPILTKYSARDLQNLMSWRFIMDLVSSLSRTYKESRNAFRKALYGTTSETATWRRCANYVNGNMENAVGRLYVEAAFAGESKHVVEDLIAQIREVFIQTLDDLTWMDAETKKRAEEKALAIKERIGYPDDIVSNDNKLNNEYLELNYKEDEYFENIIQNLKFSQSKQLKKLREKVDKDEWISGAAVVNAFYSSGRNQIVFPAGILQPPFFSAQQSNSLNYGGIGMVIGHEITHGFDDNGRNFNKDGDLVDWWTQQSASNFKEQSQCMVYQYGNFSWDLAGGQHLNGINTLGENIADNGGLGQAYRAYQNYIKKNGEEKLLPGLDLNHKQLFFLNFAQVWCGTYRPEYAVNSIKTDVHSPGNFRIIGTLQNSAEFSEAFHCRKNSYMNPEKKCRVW

IC50 ([1]; Table IV) [nM] | IC50 ([2]; Table IV) [nM] | IC50 ([1]; Table III) [nM] | IC50 ([2]; Table III) [nM] | SMILES
3.1 | 52 |  |  | CC(c1ccccc1)C(CSS)C(=O)N[C@@H](Cc1ccc(O)cc1)C(=O)O (stereo partly shown) [88(B), N-(2-mercaptothiomethyl-1-oxo-3-phenylbutyl)tyrosine]
 |  | 5 ± 2 | 4 ± 1 | CC(C)[C@H](NC(=O)C(S)Cc1ccccc1)C(=O)N[C@@H](Cc1ccc(O)cc1)C(=O)O (stereo partly shown) [Example 19, N-(2-Mercapto-3-phenylpropanoyl)-Val-Tyr]
 |  | 3.2 ± 0.3 | 2.5 ± 0.1 | CC[C@H](C)[C@H](NC(=O)C(S)Cc1ccccc1)C(=O)N[C@@H](Cc1ccc(O)cc1)C(=O)OC (stereo partly drawn) [Example 20, N-(2-Mercapto-3-phenylpropanoyl)-Ile-Tyr-OMe]
 |  | 5 ± 2 | 2 ± 1 | CCC(C)C(NC(=O)C(S)Cc1ccccc1)C(=O)N1CCCCC1C(=O)O (stereo not shown) [Example 21, N-(2-Mercapto-3-phenylpropanoyl)-Ile-Pip]
 |  | 18 ± 2 | 30 ± 5 | CCCC[C@H](NC(=O)C(S)Cc1ccccc1)C(=O)N[C@@H](Cc1ccc(O)cc1)C(=O)O (stereo partly shown) [Example 22, N-(2-Mercapto-3-phenylpropanoyl)-Nle-Tyr]
 |  | 3 ± 2 | 30 ± 5 | CC(C)C[C@H](NC(=O)C(S)Cc1ccccc1)C(=O)N[C@@H](Cc1ccc(O)cc1)C(=O)O (stereo partly shown) [Example 23, N-(2-Mercapto-3-phenylpropanoyl)-Leu-Tyr]
 |  | 3 ± 1 | 8 ± 2 | CCC(C)C(S)C(=O)N[C@@H](Cc1ccccc1)C(=O)N[C@@H](Cc1ccc(O)cc1)C(=O)O (stereo partly shown) [Example 24, N-(2-Mercapto-3-methylpentanoyl)-Phe-Tyr]
 |  | 5 ± 2 | 2 ± 0.5 | CCC(C)C(S)C(=O)NC(C(=O)N[C@@H](Cc1ccc(O)cc1)C(=O)O)C(C)C (stereo partly shown) [Example 25, N-(2-Mercapto-3-methylpentanoyl)-Val-Tyr]
 |  | 10 ± 1 | 8 ± 2 | CC(C)C(NC(=O)C(S)CCc1ccccc1)C(=O)N[C@@H](Cc1ccc(O)cc1)C(=O)O (stereo partly shown) [Example 26, N-(2-Mercapto-4-phenylbutanoyl)-Val-Tyr]
 |  | 1.4 ± 0.2 | 0.3 ± 0.1 | CC[C@H](C)[C@H](NC(=O)C(S)C(C)C)C(=O)N[C@@H](Cc1ccc(O)cc1)C(=O)O (stereo partly shown) [Example 27, N-(2-Mercapto-3-methylbutanoyl)-Ile-Tyr]
 |  | 4.5 ± 0.5 | 3.5 ± 0.5 | CC[C@H](C)[C@H](NC(=O)C(S)c1ccccc1)C(=O)N[C@@H](Cc1ccc(O)cc1)C(=O)O (stereo partly shown) [Example 28, N-(2-Mercapto-2-phenylacetyl)-Ile-Tyr]
 | 1.8 |  |  | CC(c1ccccc1)C(CS)C(=O)N[C@@H](Cc1ccc(O)cc1)C(=O)O (stereo partly shown) [Example 61, N-(2-Mercaptomethyl-1-oxo-3-phenylbutyl)tyrosine]
1.3 | 25 |  |  | CC(c1ccccc1)C(CS)C(=O)NCC(=O)O (stereo not shown) [Example 63, N-(2-Mercaptomethyl-1-oxo-3-phenylbutyl)glycine]
4 | 71 |  |  | CC(c1ccccc1)C(CS)C(=O)N[C@@H](COCc1ccccc1)C(=O)O (stereo partly shown) [Example 65, N-(2-Mercaptomethyl-1-oxo-3-phenylbutyl)-O-benzylserine]
2 | 2.8 |  |  | CC(c1ccccc1)C(CS)C(=O)N[C@@H](C)C(=O)O (stereo partly shown) [Example 67, N-(2-Mercaptomethyl-1-oxo-3-phenylbutyl)alanine]
 | 5.8 |  |  | CCCC[C@H](NC(=O)C(CS)C(C)c1ccccc1)C(=O)O (stereo partly shown) [Example 69, N-(2-Mercaptomethyl-1-oxo-3-phenylbutyl)norleucine]
1.3 | 7.9 |  |  | C[C@H](NC(=O)C(CS)C1CCc2ccccc21)C(=O)O (stereo partly shown) [Example 71, N-[3-Mercapto-2-(1-indanyl)-1-oxopropyl]alanine]
3.5 | 6.2 |  |  | CC(c1ccc(O)cc1)C(CS)C(=O)N[C@@H](C)C(=O)O (stereo partly shown) [Example 73, N-[2-Mercaptomethyl,3-(4-hydroxyphenyl)-1-oxobutyl]alanine]
1.8 | 3.5 |  |  | CC(c1ccc(O)cc1)C(CS)C(=O)N[C@@H](Cc1ccc(O)cc1)C(=O)O (stereo partly shown) [Example 75, N-[2-Mercaptomethyl-3-(4-hydroxyphenyl)-1-oxobutyl]tyrosine]
1.9 | 8.5 |  |  | CC(=O)SCC(C(=O)N[C@@H](C)C(=O)O)C(C)c1ccc(F)cc1 (stereo partly shown) [Example 78, N-[2-Acetylthiomethyl-3-(4-fluorophenyl)-1-oxobutyl]alanine]
4.8 | 5.9 |  |  | CC(=O)SC(C(=O)N[C@@H](Cc1ccc(O)cc1)C(=O)O)C(C)c1ccc(F)cc1 (stereo partly shown) [Example 80, N-[2-Acetylthio-3-(4-fluorophenyl)-1-oxobutyl]tyrosine]
3 | 5 |  |  | CC(c1ccc(F)c(F)c1)C(CS)C(=O)N[C@@H](C)C(=O)O (stereo partly shown) [Example 82, N-[2-Mercaptomethyl-3-(3,4-difluorophenyl)-1-oxobutyl]alanine]
6.3 | 3.5 |  |  | CC(c1ccc(F)c(F)c1)C(CS)C(=O)N[C@@H](Cc1ccc(O)cc1)C(=O)O (stereo partly shown) [Example 84, N-[2-Mercaptomethyl-3-(3,4-difluorophenyl)-1-oxobutyl]tyrosine]
1 | 3 |  |  | CC(c1ccccc1)C(CSS)C(=O)N[C@@H](Cc1ccc(O)cc1)C(=O)O (stereo partly shown) [Example 88(A), N-(2-Mercaptothiomethyl-1-oxo-3-phenylbutyl)tyrosine]
